Patent EP3748362A1, “IN VITRO METHOD FOR DETECTING RENAL DISEASE” (Fundacion Instituto De Investigacion Sanitaria Fundacion …, priority 2019, dated 2020)
Entries after “also recorded” stand apart in the source; their conditions may differ.

Tests used:
Type in all cases: in vivo
[1] = system: NF-κB2; assay: Non-canonical NF-κB2 activation and NF-κB2 targets in kidneys of TWEAK-injected mice
Experimental: (§1) All animal procedures were performed according to the guidelines of animal research in the European Community and with prior approval by the Ethics Committee of the Health Research of the IIS-Fundacion Jiménez Díaz. For in vivo studies, mice received a daily intraperitoneal injection of the VDRA Paricalcitol starting 48 hours prior to induction of kidney damage.
(§2) At the time of sacrifice, animals were anesthetized with 5 mg/kg xylazine (Rompun, Bayer AG) and 35 mg/kg ketamine (Ketolar, Pfizer) and the kidneys perfused in situ with cold saline before removal. Then, kidney portions were fixed in formalin buffer for immunohistochemistry studies or immediately frozen in liquid nitrogen for gene and protein studies.
TWEAK administration: C57BL/6 female mice (9-12 weeks, weight 20 g, 7-8 animals per group), received a single intraperitoneal injection of 0.5 µg TWEAK dissolved in saline and were sacrificed 24 hours later, as previously described (Sanz et al. 2008). Controls were injected with the saline vehicle (n=8-10 mice per group). TWEAK endotoxin level were <0.1 ng/mg, confirmed by MALDI-TOF. Some animals received paricalcitol 750 ng/kg/day, or the NF-κB2 inhibitor SN52, 0.7 mg/mouse/day, starting 48 hours before TWEAK administration. Animals were sacrificed 24 hours later. The dose of paricalcitol was chosen based on prior experience in mild inflammatory kidney conditions.
Paraffin-embedded kidney sections (3 µm) were stained using conventional methods. Antigen retrieval was performed by PTlink link system (Dako Diagnostics) with sodium citrate buffer (10 mmol/L) adjusted to pH 6-9 depending on the immunohistochemical marker, followed by immunohistochemical staining in a Dako Autostainer. Steps: 1) endogenous peroxidase blockade; 2) primary antibodies incubation; anti-CD3 (1:300; Dako) or anti-F4/80 (1:5000; Serotec); NF-κB p-p65 (1:200; Cell Signalling); NF-κB2 p52 (1:50; Cell Signaling); RelB (1:50; Santa Cruz Biotechnology); CCL21 (1:90; Santa Cruz Biotechnology); 3) washing; 4) DUOFLEX Doublestain EnVision™ treatment, using 3,3'-diaminobenzidine as chromogen. For F4/80 staining a rabbit anti-rat linker was used before EnVision. Sections were counterstained with Carazzi's hematoxylin. […] For each sample (processed by duplicate in a blinded manner), the average value was obtained from the analysis of 4 fields (20X objective) as density/mm2 or percentage stained area vs total analyzed area. Data are expressed as fold increase over control mice, as mean ± SEM of 8-10 animals per group. […]
(§3) For western blot, cell (25 µg/lane) and kidney (100-150 µg/lane) protein extracts were separated on 6%-12% polyacrylamide-SDS gels under reducing conditions. […] Autoradiographs were scanned using the Gel Doc™ EZ imager and analyzed with the Image Lab 3.0 software (BioRad). […]

[2] = system: NF-κB2; assay: Non-canonical NF-κB2 activation and dependent cytokines, folic acid-induced renal injury in mice; settings: folic acid 300 mg/kg model; paricalcitol 25 µg/kg/day i.p.
Experimental: as §1
At the time of sacrifice, animals were anesthetized with 5 mg/kg xylazine (Rompun, Bayer AG) and 35 mg/kg ketamine (Ketolar, Pfizer) and the kidneys perfused in situ with cold saline before removal. Then, kidney portions were fixed in formalin buffer for immunohistochemistry studies or immediately frozen in liquid nitrogen for gene and protein studies. […]
Paraffin-embedded kidney sections (3 µm) were stained using conventional methods. […] For each sample (processed by duplicate in a blinded manner), the average value was obtained from the analysis of 4 fields (20X objective) as density/mm2 or percentage stained area vs total analyzed area. Data are expressed as fold increase over control mice, as mean ± SEM of 8-10 animals per group. […]
as §3

[3] = system: NF-κB1; assay: Canonical NF-κB1 activation, folic acid-induced renal injury in mice; settings: folic acid 300 mg/kg model; paricalcitol 25 µg/kg/day i.p.
Experimental: as §1, §2
Folic acid nephropathy is a classical model of kidney tubulointerstitial injury and inflammation that has been reported in humans. Mice received a single intraperitoneal injection of folic acid (Sigma) 300 mg/kg in 0.3 mol/l sodium bicarbonate or vehicle, and were sacrificed 48 hours later. […]
(§4) For western blot, cell (25 µg/lane) and kidney (100-150 µg/lane) protein extracts were separated on 6%-12% polyacrylamide-SDS gels under reducing conditions. […] Autoradiographs were scanned using the Gel Doc™ EZ imager and analyzed with the Image Lab 3.0 software (BioRad).

[4] = system: NF-κB1; assay: Canonical NF-κB1 activation in kidneys of TWEAK-injected mice; settings: kidneys from TWEAK-injected mice; paricalcitol 750 ng/kg/day
Experimental: as §1, §2
TWEAK administration: C57BL/6 female mice (9-12 weeks, weight 20 g, 7-8 animals per group), received a single intraperitoneal injection of 0.5 µg TWEAK dissolved in saline and were sacrificed 24 hours later, as previously described (Sanz et al. 2008). Controls were injected with the saline vehicle (n=8-10 mice per group). TWEAK endotoxin level were <0.1 ng/mg, confirmed by MALDI-TOF. […]
as §4

[5] = system: TRAF3; assay: Renal TRAF3 (western blot), unilateral ureteral obstruction in mice; settings: paricalcitol 750 ng/kg/day i.p., studied after 5 days
Experimental: as §1, §2
Unilateral ureteral obstruction (UUO) was established in male C57BL/6 mice, under isoflurane-induced anesthesia. […]
as §4

C[C@H](/C=C/[C@H](C)C(C)(C)O)[C@H]1CC[C@H]2/C(=C/C=C3C[C@@H](O)C[C@H](O)C3)CCC[C@]12C [paricalcitol]
renal CCL21A and CCL19 gene expression ([1]; paricalcitol 750 ng/kg/day or SN52 0.7 mg/mouse/day, real time PCR): reduced
TWEAK-induced NF-κB2 activation in the kidney: nuclear p52 and RelB accumulation in tubular epithelial cells ([1]; paricalcitol 750 ng/kg/day, immunohistochemistry, western blot): reduced
TWEAK-induced p52 and RelB DNA binding activities ([1]; renal nuclear protein extracts, paricalcitol 750 ng/kg/day, ELISA): inhibited
CCL21 protein levels ([1]; total kidney proteins, paricalcitol 750 ng/kg/day, western blot): reduced
NF-κB2 activation, as determined by RelB and p52 levels, nuclear translocation and RelB DNA-binding activity [2]: decreased; also recorded: blocked
gene and protein expression of NF-κB2-dependent cytokines, such as CCL21A, as well as other pro-inflammatory factors [2]: blocked
NF-κB1 activation, evaluated by IκB-α phosphorylation [3]: not modified
IκBα phosphorylation and nuclear p65 NF-κB levels [4]: not modulated; also recorded: not modified
renal TRAF3 protein levels [5]: restored renal TRAF3 protein levels to values of control mice
